Test results published in ChEMBL document CHEMBL1201862, “PubChem BioAssay data set” (2004).
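Protocol summary: plate cells (96-well), add compound at 5 concentrations, incubate 48 h, interpolate endpoints linearly. GI50: concentration for 50% inhibition of growth.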 Activity calls are given as the source filed them. Cut-off read from the data, not from the text of the source: active = GI50 up to about 1.1 µM and inactive = higher.

Experiments:
Test in all cases: NCI anticancer screen, dose series, 48 h
NCI-H23 = test system: NCI-H23
OVCAR-3 = test system: OVCAR-3
NCI-H226 = test system: NCI-H226
EKVX = test system: EKVX
SK-MEL-2 = test system: SK-MEL-2
HCC 2998 = test system: HCC 2998
U-251 = test system: U-251
MDA-MB-231 = test system: MDA-MB-231
KM-20L2 = test system: KM-20L2
RXF 393 = test system: RXF 393
NCI-H460 = test system: NCI-H460
SK-MEL-5 = test system: SK-MEL-5
RPMI-8226 = test system: RPMI-8226
SF-295 = test system: SF-295
IGROV-1 = test system: IGROV-1
DU-145 = test system: DU-145
LOX IMVI = test system: LOX IMVI
A498 = test system: A498
BT-549 = test system: BT-549
HCT-15 = test system: HCT-15
SK-OV-3 = test system: SK-OV-3
DMS-114 = test system: DMS-114
T47D = test system: T47D
NCI-H522 = test system: NCI-H522
TK-10 = test system: TK-10
RXF 631 = test system: RXF 631
MOLT-4 = test system: MOLT-4
XF498 = test system: XF498
HT-29 = test system: HT-29
KM12 = test system: KM12
UO-31 = test system: UO-31
MDA-MB-435 = test system: MDA-MB-435
M14 = test system: M14
SNB-78 = test system: SNB-78
SF-539 = test system: SF-539
Hs-578T = test system: Hs-578T
NCI/ADR-RES = test system: NCI/ADR-RES
CAKI-1 = test system: CAKI-1
COLO 205 = test system: COLO 205
HCT-116 = test system: HCT-116
M19-MEL = test system: M19-MEL
SNB-19 = test system: SNB-19
HOP-18 = test system: HOP-18
K562 = test system: K562
SF-268 = test system: SF-268
ACHN = test system: ACHN
SNB-75 = test system: SNB-75
OVCAR-5 = test system: OVCAR-5
HOP-62 = test system: HOP-62
CCRF-CEM = test system: CCRF-CEM
A549 = test system: A549
DMS-273 = test system: DMS-273
OVCAR-8 = test system: OVCAR-8
SK-MEL-28 = test system: SK-MEL-28
PC-3 = test system: PC-3
MCF7 = test system: MCF7
MDA-N = test system: MDA-N
DLD-1 = test system: DLD-1
Malme-3M = test system: Malme-3M
UACC-257 = test system: UACC-257
OVCAR-4 = test system: OVCAR-4
HOP-92 = test system: HOP-92
LXFL 529 = test system: LXFL 529
HL-60 = test system: HL-60
786-0 = test system: 786-0
UACC-62 = test system: UACC-62
SN12C = test system: SN12C
SW-620 = test system: SW-620
SR = test system: SR

Measured: GI50

CNCCCNc1c2ccccc2nc2cccc([N+](=O)[O-])c12
9.57 nM: HCT-15
active: NCI-H23 1.93 nM | OVCAR-3 4.49 nM | NCI-H226 18 nM | EKVX 8.09 nM | SK-MEL-2 3.32 nM | HCC 2998 4.45 nM | U-251 3.44 nM | MDA-MB-231 1.58 nM | KM-20L2 4.16 nM | RXF 393 0.346 nM | NCI-H460 0.47 nM | SK-MEL-5 5.07 nM | RPMI-8226 3.48 nM | SF-295 3.4 nM | IGROV-1 7.26 nM | DU-145 3.78 nM | LOX IMVI 6.04 nM | A498 2.9 nM | BT-549 2.3 nM | SK-OV-3 10.3 nM | DMS-114 2.21 nM | T47D 2.29 nM | NCI-H522 0.449 nM | TK-10 6.75 nM | RXF 631 28.6 nM | MOLT-4 2.43 nM | XF498 2.47 nM | HT-29 3.37 nM | KM12 6.4 nM | UO-31 8.45 nM | MDA-MB-435 1.66 nM | M14 4.33 nM | SNB-78 2.33 nM | SF-539 6.34 nM | Hs-578T 2.99 nM | NCI/ADR-RES 8.61 nM | CAKI-1 7.53 nM | COLO 205 1.5 nM | HCT-116 2.42 nM | M19-MEL 3.87 nM | SNB-19 7.69 nM | HOP-18 23.7 nM | K562 4.07 nM | SF-268 2.25 nM | ACHN 2.51 nM | SNB-75 4.38 nM | OVCAR-5 4.59 nM | HOP-62 3.73 nM | CCRF-CEM 9.86 nM | A549 1.87 nM | DMS-273 15.2 nM | OVCAR-8 3.72 nM | SK-MEL-28 10.9 nM | PC-3 1.82 nM | MCF7 1.43 nM | MDA-N 1.6 nM | DLD-1 3.03 nM | Malme-3M 4.3 nM | UACC-257 18.9 nM | OVCAR-4 1.74 nM | HOP-92 1.83 nM | LXFL 529 6.65 nM | HL-60 10 nM | 786-0 3.23 nM | UACC-62 4.68 nM | SN12C 5.61 nM | SW-620 3.21 nM

Cc1ccc(S(=O)(=O)N/N=C(\c2nc3ccc(Cl)cc3nc2O)C(O)c2cccc([N+](=O)[O-])c2)cc1 (configuration not stated)
inactive: NCI-H23 > 100000 nM | OVCAR-3 > 100000 nM | NCI-H226 > 100000 nM | EKVX > 100000 nM | SK-MEL-2 > 100000 nM | HCC 2998 > 100000 nM | U-251 > 100000 nM | KM-20L2 > 100000 nM | RXF 393 > 100000 nM | NCI-H460 > 100000 nM | SK-MEL-5 > 100000 nM | RPMI-8226 71000 nM | SF-295 > 100000 nM | IGROV-1 > 100000 nM | LOX IMVI > 100000 nM | A498 > 100000 nM | SK-OV-3 > 100000 nM | DMS-114 > 100000 nM | NCI-H522 63400 nM | TK-10 > 100000 nM | RXF 631 > 100000 nM | MOLT-4 > 100000 nM | XF498 > 100000 nM | HT-29 > 100000 nM | KM12 > 100000 nM | UO-31 > 100000 nM | M14 > 100000 nM | SNB-78 > 100000 nM | SF-539 > 100000 nM | CAKI-1 > 100000 nM | COLO 205 > 100000 nM | HCT-116 > 100000 nM | M19-MEL > 100000 nM | SNB-19 > 100000 nM | HOP-18 > 100000 nM | K562 > 100000 nM | SF-268 > 100000 nM | ACHN > 100000 nM | SNB-75 > 100000 nM | OVCAR-5 > 100000 nM | HOP-62 > 100000 nM | CCRF-CEM 52700 nM | A549 > 100000 nM | DMS-273 > 100000 nM | OVCAR-8 > 100000 nM | SK-MEL-28 > 100000 nM | DLD-1 > 100000 nM | Malme-3M > 100000 nM | UACC-257 > 100000 nM | OVCAR-4 > 100000 nM | SR > 100000 nM | HOP-92 > 100000 nM | LXFL 529 > 100000 nM | HL-60 > 100000 nM | 786-0 > 100000 nM | UACC-62 > 100000 nM | SN12C > 100000 nM | SW-620 > 100000 nM
> 100000 nM: HCT-15
